Test: solubility of ketoconazole in oleic acid
Type: physicochemical
Conditions: ambient room temperature, 48 h
Experimental: The solubility of ketoconazole in oleic acid was assessed at ambient room temperature using the method described in Example 1. Samples containing 5, 10, 15 and 33 wt. % of ketoconazole were mixed with oleic acid and the appearance of undissolved ketoconazole was investigated after 24 and 48 h. After 24 hours samples containing 5 wt. % ketoconazole were completely dissolved and after 48 h samples containing 10 wt. % of ketoconazole were completely homogenous and all ketoconazole was dissolved. Thus the solubility of ketoconazole in oleic acid is estimated to be about 10 wt. %.

Compound: CC(=O)N1CCN(c2ccc(OCC3COC(Cn4ccnc4)(c4ccc(Cl)cc4Cl)O3)cc2)CC1 (stereo not shown) [ketoconazole, Ketoconazole]
- solubility of ketoconazole in oleic acid: about 10 wt. %
